From ChEMBL document CHEMBL1201862, “PubChem BioAssay data set” (2004) come the findings set out here.

Test systems include A498; OVCAR-5; PC-3; 786-0; CAKI-1; BT-549; OVCAR-8; RPMI-8226; RXF 393; Hs-578T; SF-539; ACHN; NCI-H226; OVCAR-3; SF-295; DU-145; Malme-3M; HCT-116; UACC-257; UO-31.
Assay in all cases: NCI anticancer screen, dose series, 48 h

Structures are written as SMILES.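 Grown in 96-well plates, cells were treated for 48 hours with each compound at five concentrations. Insufficient inhibition: endpoint recorded as highest concentration tested. Here, GI50 denotes the concentration required for 50% inhibition of growth.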 Activity calls are given as the source filed them. Rule as the data show it: active = GI50 up to about 1.1 µM and inactive = higher.

`CCOC(=O)CCc1c(C)c2ccc(O)cc2oc1=O`: the GI50 in the assay on A498, in the assay on OVCAR-5, in the assay on PC-3, with 786-0, with CAKI-1 and in the assay with BT-549 was > 100 µM (inactive) each time. Moreover, the GI50 in the assay with OVCAR-8, with RPMI-8226, in the assay with RXF 393, in the assay on Hs-578T, with SF-539 and in the assay on ACHN was > 100 µM (inactive) in each case. Moreover, the GI50 in the assay with NCI-H226, in the assay with OVCAR-3, with SF-295, in the assay with DU-145, in the assay with Malme-3M and in the assay on HCT-116 was > 100 µM (inactive) each time. The GI50 with UACC-257 was > 100 µM (inactive).

Consider `OC(CC(CC(O)(C(F)(F)Cl)C(F)(F)Cl)=NNc1ccccc1)(C(F)(F)Cl)C(F)(F)Cl`, for which the GI50 in the assay with A498 was 2.54 µM (inactive); with OVCAR-5 it was 3.66 µM (inactive); in the assay with PC-3 it was 1.35 µM (inactive); in the assay with 786-0 it was 4.54 µM (inactive); with CAKI-1 it was 2.9 µM (inactive); in the assay with BT-549 it was 1.94 µM (inactive). For the same compound, the GI50 with OVCAR-8 was 2.9 µM (inactive); in the assay with RPMI-8226, > 10 µM (inactive); in the assay with RXF 393 it was 2.8 µM (inactive); in the assay on Hs-578T, 2.45 µM (inactive); with SF-539 it was 2.95 µM (inactive); in the assay with ACHN, 2.79 µM (inactive). Besides, the GI50 in the assay with NCI-H226 was 2.99 µM (inactive); in the assay on OVCAR-3, 2.77 µM (inactive); in the assay with SF-295, 2.91 µM (inactive); in the assay on DU-145 it was 3.3 µM (inactive); in the assay on Malme-3M, 3.7 µM (inactive); in the assay with HCT-116, 1.98 µM (inactive). In the assay on UACC-257, the GI50 is 1.88 µM (inactive).

As for `OCCN(CCO)c1ccc2c(-c3ccccc3)cc(N(CCO)CCO)nc2n1`, the GI50 in the assay with A498 is 54.2 µM (inactive); in the assay with OVCAR-5, > 100 µM (inactive); with PC-3, > 100 µM (inactive); with 786-0, > 100 µM (inactive); with CAKI-1, > 100 µM (inactive); in the assay with BT-549 it was > 100 µM (inactive). In addition, the GI50 in the assay with OVCAR-8, in the assay with UO-31, in the assay with RPMI-8226, in the assay with RXF 393, in the assay with Hs-578T and in the assay on ACHN was > 100 µM (inactive) each time. Besides, the GI50 in the assay with NCI-H226, with OVCAR-3, with SF-295, in the assay on DU-145, in the assay on Malme-3M and in the assay on HCT-116 was > 100 µM (inactive) each time. Moreover, in the assay with UACC-257, the GI50 is > 100 µM (inactive).

In the case of `COCN1C(=O)[C@@H]2CCCN2C(=O)c2ccc(Cl)cc21`, the GI50 in the assay on A498, with OVCAR-5, in the assay with PC-3, with 786-0, in the assay with CAKI-1 and in the assay on BT-549 was > 100 µM (inactive) each time. Besides, the GI50 in the assay with OVCAR-8, with UO-31, with RPMI-8226, with RXF 393, with Hs-578T and in the assay on ACHN was > 100 µM (inactive) throughout. In addition, the GI50 with NCI-H226, with SF-295, with DU-145, in the assay on Malme-3M, in the assay with HCT-116 and in the assay on UACC-257 was > 100 µM (inactive) throughout.

As for `C/C1=C\CC[C@@]2(C)O[C@@H]2C[C@@H]2[C@H](C/C(C)=C/CC1)OC(=O)[C@]21CO1`, the GI50 in the assay with A498, with OVCAR-5, in the assay on PC-3, in the assay on 786-0, in the assay with CAKI-1 and with BT-549 was > 100 µM (inactive) each time. The GI50 in the assay on OVCAR-8 is > 100 µM (inactive); in the assay on UO-31 it was > 100 µM (inactive); with RPMI-8226, 51.5 µM (inactive); in the assay with RXF 393, > 100 µM (inactive); in the assay with Hs-578T it was > 100 µM (inactive); with ACHN, > 100 µM (inactive). Moreover, the GI50 in the assay on NCI-H226 was > 100 µM (inactive); in the assay on OVCAR-3 it was > 100 µM (inactive); in the assay on SF-295 it was > 100 µM (inactive); in the assay on DU-145 it was > 100 µM (inactive); in the assay on Malme-3M, > 100 µM (inactive); in the assay with HCT-116 it was 41.5 µM (inactive). The GI50 in the assay on UACC-257 is > 100 µM (inactive).

For the compound `O=C(O)c1ccc(N2C=[N+]3C(=Nc4ccccc43)C2)cc1`, the GI50 in the assay on A498, with OVCAR-5, in the assay with PC-3, in the assay with 786-0, in the assay on CAKI-1 and in the assay on BT-549 was > 100 µM (inactive) in each case. Further, the GI50 in the assay with OVCAR-8, in the assay on UO-31, in the assay on RPMI-8226, in the assay with RXF 393, with Hs-578T and in the assay on ACHN was > 100 µM (inactive) in each case. Also, the GI50 with NCI-H226 was > 100 µM (inactive); in the assay on OVCAR-3, > 100 µM (inactive); with SF-295, > 100 µM (inactive); in the assay with DU-145, > 100 µM (inactive); in the assay on Malme-3M it was 0.475 µM (active); in the assay with HCT-116, > 100 µM (inactive). Also, in the assay with UACC-257, the GI50 is > 100 µM (inactive).

`CCCCCCOC(=O)/C=C/[C@]1(CO)C/C(=C/CC(C(C)C)C(C)C)C(=O)O1`: the GI50 with A498 is 4.82 µM (inactive); in the assay with OVCAR-5, 11.6 µM (inactive); in the assay on PC-3, 11.5 µM (inactive); with 786-0, 4.36 µM (inactive); in the assay with CAKI-1, 10.9 µM (inactive); in the assay with BT-549 it was 10.5 µM (inactive). In addition, the GI50 in the assay with OVCAR-8 is 16.7 µM (inactive); with UO-31 it was 4.46 µM (inactive); in the assay with RPMI-8226, 15.7 µM (inactive); in the assay with RXF 393 it was 18.2 µM (inactive); in the assay with Hs-578T, 4.75 µM (inactive); in the assay on ACHN, 6.95 µM (inactive). For the same compound, the GI50 with NCI-H226 was 3.41 µM (inactive); in the assay on OVCAR-3 it was 11.9 µM (inactive); in the assay on SF-295, 10.4 µM (inactive); in the assay on DU-145, 18.2 µM (inactive); in the assay with Malme-3M, 12.2 µM (inactive); with HCT-116 it was 13.2 µM (inactive). Besides, in the assay with UACC-257, the GI50 was 16.5 µM (inactive).

On to `Cc1ccc2c(=O)cc(Cc3csc4ccccc34)[nH]c2n1`, for which the GI50 in the assay with A498 is 32.3 µM (inactive); in the assay with OVCAR-5, 60 µM (inactive); in the assay on PC-3, 67 µM (inactive); in the assay with 786-0 it was 46.2 µM (inactive); in the assay on CAKI-1, 44.3 µM (inactive); in the assay on BT-549, 23.3 µM (inactive). Besides, the GI50 with OVCAR-8 is 36 µM (inactive); in the assay on UO-31 it was 22.4 µM (inactive); with RPMI-8226, 22.3 µM (inactive); with RXF 393 it was 25.3 µM (inactive); with Hs-578T it was 12.7 µM (inactive); in the assay with NCI-H226, 18.1 µM (inactive). The GI50 was 28.8 µM (inactive) in the assay on OVCAR-3; 26 µM (inactive) in the assay on SF-295; 50.9 µM (inactive) with DU-145; 12.4 µM (inactive) in the assay on Malme-3M; 28.8 µM (inactive) in the assay with HCT-116; 38.6 µM (inactive) in the assay on UACC-257.
